Results from article PMC6934184, “Selective DNA-PKcs inhibition extends the therapeutic index of localized radiotherapy and chemotherapy” (The Journal of Clinical Investigation, 2019).

Experiments:
SJSA-1 = experiment: clonogenic survival with etoposide; assay type: cell-based, human; conditions: NU5455 1 μM, 24 hours
Experimental: Cell line γH2AX and 53BP1 foci immunofluorescence and quantitation
Cells grown on coverslips or in 96-well plates were treated with 1 or 5 µM NU5455 or DMSO 1 hour prior to irradiation (0, 2.5 or 10 Gy) using an RS 320 X-ray Research System (Gulmay Medical). At set timepoints (15 or 30 minutes, or 1, 4, 5, 6, or 24 hours post-irradiation), cells were washed and fixed in methanol or 3% paraformaldehyde (PFA). […] In A549 and Calu-6, cells were Hoechst stained (5 µg/ml), and the average numbers of γH2AX and 53BP1 foci per cell were quantified from 400 nuclei per sample using an In Cell analyzer 1000 (GE Healthcare). For MCF7 cells, coverslips were mounted using Vectashield mounting medium with DAPI (Vector Labs) and imaged using a Leica TCS SPE confocal fluorescence microscope. Total fluorescence intensity was determined using ImagePro Plus 5.0 software (Media Cybernetics). […]
Cells were washed in phosphate-buffered saline (PBS), trypsinized and counted. […] Colonies were fixed using Carnoys fixture (75% v/v methanol, 25% v/v acetic acid, Fisher), stained with crystal violet (0.4% w/v in water), and counted using a ColCount automated colony counter (Oxford Optronics). Cell survival was calculated as a percentage of the untreated control. […]

[1] = system: A549 subcutaneous xenografts; experiment: subcutaneous A549 xenograft with localized radiation; assay type: in vivo, mouse; conditions: NU5455 30 mg/kg oral 30 min before 10 Gy
Experimental: Subcutaneous non–small cell lung cancer xenografts were generated in CD-1 nude or BALB/c nude mice using A549 and Calu-6 cells, respectively, as previously described ([53]). When tumors reached 100 mm^3, mice were randomized into 4 groups (n = 7–9 per group) to receive (a) vehicle (orally) 30 minutes before mock radiation, (b) NU5455 (30 mg/kg orally) 30 minutes before mock radiation, (c) targeted tumor radiation at a single dose of 3.3 or 10 Gy, or (d) NU5455 (30 mg/kg orally) 30 minutes before 3.3 Gy or 10 Gy targeted tumor radiation. For targeted irradiation of subcutaneous tumors, anesthetized mice were restrained in a lead-shielded container with only the tumor exposed, and x-ray radiation applied using an RS320 irradiation system (Gulmay Medical) at a dose rate of 1.82 Gy/min. […]
NSCLC subcutaneous xenografts were generated as previously described ( 53). […] Mouse weights and tumor volumes (1/2 x length x width x depth) were measured three times a week.
Targeted radiotherapy in subcutaneous and orthotopic NSCLC xenograft models When subcutaneous xenografts reached 100 mm3, mice were randomized into four groups (n = 7 - 11/group): (i) N-Methyl-2-pyrrolidone (NMP): 30% Encapsin : PEG400 (1:6:3 v/v/v) vehicle p.o. 30 minutes prior to mock radiation. […] The remaining mice were monitored for tumor growth until the sizes of tumo rs reached 400 mm 3 or up to 38 days after initiation of […]

CN(C(=O)CN1CCOCC1)c1ccc2sc3c(-c4cccc5c(=O)cc(N6CC7CCC(C6)O7)oc45)cccc3c2c1 [NU5455]
Fold potentiation of etoposide (LD80, SER80) (SJSA-1): 4.1 fold | antitumor activity with radiation [1]: enhanced the antitumor activity
